# Like-named read-outs stand apart in the source and are kept apart here.
# Assays:
# Assay type in all cases: cell-based
# ΔF508-CFTR [1] = biological target: T1, ΔF508-CFTR (Homo sapiens, UniProt P13569, DEL508-508); assay: CFTR cell surface levels using HRP-tagged ΔF508-CFTR expressing CFBE cells, in the presence of a co-corrector
# T1 construct: host or cells: CFBE41o-, doxycycline-inducible
# Procedure, shortened: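 Chemiluminescent read-out of surface HRP (15 min, dark) after PBS washes. Activity is normalized as 100×(sample−DMSO)/(3 μM co-corrector alone−DMSO).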
# ΔF508-CFTR [2] = biological target: T1, ΔF508-CFTR; assay: CFTR cell surface levels using HRP-tagged ΔF508-CFTR expressing CFBE cells, intrinsic corrector capacity; set-up: % Activation: concentration or dose not given beside the values
# Procedure, shortened: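 Read-out: chemiluminescent HRP activity of ECL4-HRP-tagged ΔF508-CFTR at the cell surface, 15 min substrate in dark. Normalized as 100×(sample−DMSO)/(positive control−DMSO).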
# CFTR ΔF508 = biological target: T2, CFTR ΔF508 (Homo sapiens, UniProt P13569, DEL508-508); assay: Chronic TECC assay, primary bronchial epithelial cells of CF patients homozygous for CFTR ΔF508 (corrector, co-corrector and potentiator); conditions: for % Activity at 1 μM (AUC**): test compound at 1 μM; for % Activity at 3 μM (AUC**): test compound at 3 μM
# T2 construct: bronchial epithelial cells isolated from CF patients homozygous for the CFTR ΔF508 mutation; McGill University; Asterand; University of North Carolina hAEC-CF; host or cells: primary human bronchial epithelial cells from CF patients homozygous for ΔF508, differentiated at air-liquid interface
# Procedure, shortened: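 Primary bronchial epithelial cells from ΔF508-homozygous CF patients on collagen IV-coated Transwells were chronically treated with test compound plus corrector and potentiator, which were re-added before recording. Ieq was derived from PD and Rt in NaCl-Ringer, pH 7.4, at 37° C, with apical amiloride and bilateral forskolin, recorded every 2 min over 20 min. Ieq increase was normalized to controls, and EC50 was taken from per-well concentrations.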
# [3] = HRP-tagged ΔF508-CFTR CFBE cells, in the presence of 3 μM co-corrector
# [4] = HRP-tagged ΔF508-CFTR CFBE cells, in the presence of 3 μM co-corrector, read-out: EC50
# [5] = HRP-tagged ΔF508-CFTR expressing CFBE41o- cells, compound alone (intrinsic corrector capacity), 20 hours at 33° C.
# [6] = HRP-tagged ΔF508-CFTR expressing CFBE41o- cells, compound alone (intrinsic corrector capacity), 20 hours at 33° C., read-out: EC50
# [7] = chronic TECC, AUC = full area under the curve upon forskolin stimulation
# [8] = chronic TECC, AUC = full area under the curve upon forskolin stimulation, read-out: EC50 (nM) (AUC**)
# T1 sequence (P13569 with tags, fused parts or gaps DEL508-508): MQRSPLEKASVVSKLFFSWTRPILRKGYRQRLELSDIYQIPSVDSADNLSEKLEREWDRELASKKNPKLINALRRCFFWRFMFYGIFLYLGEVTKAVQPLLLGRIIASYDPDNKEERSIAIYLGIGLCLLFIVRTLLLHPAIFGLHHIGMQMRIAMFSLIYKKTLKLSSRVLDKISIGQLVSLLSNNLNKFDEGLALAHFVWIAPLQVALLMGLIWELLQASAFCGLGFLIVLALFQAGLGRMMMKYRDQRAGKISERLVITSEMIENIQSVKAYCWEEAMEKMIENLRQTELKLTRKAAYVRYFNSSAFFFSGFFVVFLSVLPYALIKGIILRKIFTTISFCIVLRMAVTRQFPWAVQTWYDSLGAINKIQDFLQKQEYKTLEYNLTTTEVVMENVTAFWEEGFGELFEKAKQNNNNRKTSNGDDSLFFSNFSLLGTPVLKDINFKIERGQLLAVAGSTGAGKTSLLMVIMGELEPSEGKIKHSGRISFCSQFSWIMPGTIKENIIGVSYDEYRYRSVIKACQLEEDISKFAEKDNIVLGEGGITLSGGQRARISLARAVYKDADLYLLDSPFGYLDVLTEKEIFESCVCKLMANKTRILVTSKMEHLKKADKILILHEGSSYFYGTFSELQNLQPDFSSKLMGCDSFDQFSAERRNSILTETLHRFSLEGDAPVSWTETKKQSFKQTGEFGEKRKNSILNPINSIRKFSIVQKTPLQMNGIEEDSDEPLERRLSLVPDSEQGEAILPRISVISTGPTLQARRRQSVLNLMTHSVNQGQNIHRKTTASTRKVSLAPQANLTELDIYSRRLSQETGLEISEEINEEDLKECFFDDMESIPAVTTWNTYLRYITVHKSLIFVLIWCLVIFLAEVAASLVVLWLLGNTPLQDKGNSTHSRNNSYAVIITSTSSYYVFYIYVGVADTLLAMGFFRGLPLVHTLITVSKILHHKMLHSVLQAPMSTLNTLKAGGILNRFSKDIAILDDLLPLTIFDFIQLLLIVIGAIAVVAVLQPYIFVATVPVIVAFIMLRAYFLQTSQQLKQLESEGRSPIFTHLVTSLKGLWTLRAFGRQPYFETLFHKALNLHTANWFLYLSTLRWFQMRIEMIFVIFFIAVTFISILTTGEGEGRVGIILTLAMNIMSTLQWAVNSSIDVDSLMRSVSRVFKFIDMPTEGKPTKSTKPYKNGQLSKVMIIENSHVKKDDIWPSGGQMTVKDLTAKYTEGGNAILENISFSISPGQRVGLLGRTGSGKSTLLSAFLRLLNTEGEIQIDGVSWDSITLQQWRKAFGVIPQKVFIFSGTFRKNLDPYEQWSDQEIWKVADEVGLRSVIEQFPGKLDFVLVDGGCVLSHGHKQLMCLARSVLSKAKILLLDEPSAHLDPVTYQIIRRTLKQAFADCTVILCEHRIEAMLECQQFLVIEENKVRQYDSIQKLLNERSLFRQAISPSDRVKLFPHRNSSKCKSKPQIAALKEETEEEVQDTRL
# T2 sequence (P13569 with tags, fused parts or gaps DEL508-508): as above
smiles,measurement,setting,value
"COC(=O)N1CCC(COc2cc(C(=O)NS(C)(=O)=O)nc3c2c(C(C)C)nn3-c2ccc(F)cc2)CC1 [Compound 322, methyl 4-({[1-(4-fluorophenyl)-6-[(methanesulfonyl)carbamoyl]-3-(propan-2-yl)-1H-pyrazolo[3,4-b]pyridin-4-yl]oxy}methyl)piperidine-1-carboxylate]",% Activation,ΔF508-CFTR [1]; [3],342.75%
same,EC50,ΔF508-CFTR [1]; [4],61.4 nM
same,% Activation,ΔF508-CFTR [2]; [5],158.25%
same,EC50,ΔF508-CFTR [2]; [6],128 nM
same,% Activity at 1 μM (AUC**),CFTR ΔF508; [7],440.86%
"CN1CCCCC1CCOc1cc(C(=O)NS(C)(=O)=O)nc2c1c(C1CCC1)nn2-c1ccccc1 (stereo not drawn) [Compound 323, 3-cyclobutyl-N-(methanesulfonyl)-4-[2-(1-methylpiperidin-2-yl)ethoxy]-1-phenyl-1H-pyrazolo[3,4-b]pyridine-6-carboxamide]",% Activation,ΔF508-CFTR [1]; [3],292.85%
same,EC50,ΔF508-CFTR [1]; [4],372 nM
same,% Activation,ΔF508-CFTR [2]; [5],144.6%
same,EC50,ΔF508-CFTR [2]; [6],1370 nM
same,% Activity at 1 μM (AUC**),CFTR ΔF508; [7],217.91%
"CC(C)N(CCOc1cc(C(=O)NS(C)(=O)=O)nc2c1c(C1CCC1)nn2-c1ccccc1)C1COC1 [Compound 325, 3-cyclobutyl-N-(methanesulfonyl)-4-{2-[(oxetan-3-yl)(propan-2-yl)amino]ethoxy}-1-phenyl-1H-pyrazolo[3,4-b]pyridine-6-carboxamide]",% Activation,ΔF508-CFTR [1]; [3],309.8%
same,EC50,ΔF508-CFTR [1]; [4],153 nM
same,% Activation,ΔF508-CFTR [2]; [5],151.4%
same,EC50,ΔF508-CFTR [2]; [6],335 nM
same,% Activity at 1 μM (AUC**),CFTR ΔF508; [7],317.57%
"CS(=O)(=O)NC(=O)c1cc(N2CCC(CCN3CCOCC3)CC2)c2c(C3CCC3)nn(-c3ccccc3)c2n1 [Compound 331, 3-cyclobutyl-N-(methanesulfonyl)-4-{4-[2-(morpholin-4-yl)ethyl]piperidin-1-yl}-1-phenyl-1H-pyrazolo[3,4-b]pyridine-6-carboxamide]",EC50,ΔF508-CFTR [1],38.2 nM
same,% Activation,ΔF508-CFTR [1]; [3],546.05%
same,EC50,ΔF508-CFTR [2],136 nM
same,% Activation,ΔF508-CFTR [2]; [5],347.15%
same,EC50,CFTR ΔF508,10 nM
"CCOC(=O)N1CCN(c2cc(C(=O)NS(C)(=O)=O)nc3c2c(C(C)C)nn3-c2ccc(F)cc2)CC1 [Compound 337, ethyl 4-[1-(4-fluorophenyl)-6-[(methanesulfonyl)carbamoyl]-3-(propan-2-yl)-1H-pyrazolo[3,4-b]pyridin-4-yl]piperazine-1-carboxylate]",% Activation,ΔF508-CFTR [1]; [3],532.3%
same,EC50,ΔF508-CFTR [1]; [4],30.5 nM
same,% Activation,ΔF508-CFTR [2]; [5],404.9%
same,EC50,ΔF508-CFTR [2]; [6],134 nM
same,% Activity at 1 μM (AUC**),CFTR ΔF508; [7],299.50%
"COCCN1CCN(c2cc(C(=O)NS(C)(=O)=O)nc3c2c(C(C)C)nn3-c2ccc(F)cc2)CC1 [Compound 340, 1-(4-fluorophenyl)-N-(methanesulfonyl)-4-[4-(2-methoxyethyl)piperazin-1-yl]-3-(propan-2-yl)-1H-pyrazolo[3,4-b]pyridine-6-carboxamide]",% Activation,ΔF508-CFTR [1]; [3],319.2%
same,EC50,ΔF508-CFTR [1]; [4],786 nM
same,% Activation,ΔF508-CFTR [2]; [5],138.95%
same,EC50,ΔF508-CFTR [2]; [6],1390 nM
same,% Activity at 1 μM (AUC**),CFTR ΔF508; [7],216.53%
"CC(C)c1nn(-c2ccc(F)cc2)c2nc(C(=O)NS(C)(=O)=O)cc(N3CCC(N4CCCCC4)CC3)c12 [Compound 348, 4-([1,4'-bipiperidin]-1'-yl)-1-(4-fluorophenyl)-N-(methanesulfonyl)-3-(propan-2-yl)-1H-pyrazolo[3,4-b]pyridine-6-carboxamide]",% Activation,ΔF508-CFTR [1]; [3],468.65%
same,EC50,ΔF508-CFTR [1]; [4],723 nM
same,% Activation,ΔF508-CFTR [2]; [5],293.6%
same,EC50,ΔF508-CFTR [2]; [6],5970 nM
same,EC50,CFTR ΔF508; [8],200 nM
same,% Activity at 1 μM (AUC**),CFTR ΔF508; [7],343.24%
"CS(=O)(=O)NC(=O)c1cc(N2CCC(N3CCCCC3)CC2)c2c(C3CCC3)nn(-c3ccccc3)c2n1 [Compound 365, 4-([1,4′-bipiperidin]-1′-yl)-3-cyclobutyl-N-(methanesulfonyl)-1-phenyl-1H-pyrazolo[3,4-b]pyridine-6-carboxamide]",EC50,ΔF508-CFTR [1],271 nM
same,% Activation,ΔF508-CFTR [1]; [3],469.95%
same,EC50,ΔF508-CFTR [2],1670 nM
same,% Activation,ΔF508-CFTR [2]; [5],313%
same,EC50,CFTR ΔF508,200 nM
"COCC1CCN(c2cc(C(=O)NS(=O)(=O)C3CCOC3)nc3c2c(C2CCC2)nn3-c2ccccc2)CC1 (stereo not drawn) [Compound 369, 3-cyclobutyl-4-[4-(methoxymethyl)piperidin-1-yl]-N-(oxolane-3-sulfonyl)-1-phenyl-1H-pyrazolo[3,4-b]pyridine-6-carboxamide]",% Activation,ΔF508-CFTR [1]; [3],444%
same,EC50,ΔF508-CFTR [1]; [4],106 nM
same,% Activation,ΔF508-CFTR [2]; [5],292.7%
same,EC50,ΔF508-CFTR [2]; [6],101 nM
same,EC50,CFTR ΔF508; [8],8.3 nM
same,% Activity at 1 μM (AUC**),CFTR ΔF508; [7],583.16%
"COCC1CCN(c2cc(C(=O)NS(C)(=O)=O)nc3c2c(C(C)C)nn3-c2cc(C)nc(C)c2)CC1 [Compound 370, 1-(2,6-dimethylpyridin-4-yl)-N-(methanesulfonyl)-4-[4-(methoxymethyl)piperidin-1-yl]-3-(propan-2-yl)-1H-pyrazolo[3,4-b]pyridine-6-carboxamide]",% Activation,ΔF508-CFTR [1]; [3],343.2%
same,EC50,ΔF508-CFTR [1]; [4],691 nM
same,% Activation,ΔF508-CFTR [2]; [5],172.2%
same,EC50,ΔF508-CFTR [2]; [6],1490 nM
same,% Activity at 3 μM (AUC**),CFTR ΔF508; [7],226.54%
"COCC1CN(C2CCN(c3cc(C(=O)NS(=O)(=O)N(C)C)nc4c3c(C3CCC3)nn4-c3ccc(F)cc3)CC2)CCO1 (stereo not drawn) [Compound 379, 3-cyclobutyl-N-(dimethylsulfamoyl)-1-(4-fluorophenyl)-4-{4-[2-(methoxymethyl)morpholin-4-yl]piperidin-1-yl}-1H-pyrazolo[3,4-b]pyridine-6-carboxamide]",% Activation,ΔF508-CFTR [1]; [3],440.55%
same,EC50,ΔF508-CFTR [1]; [4],61.1 nM
same,% Activation,ΔF508-CFTR [2]; [5],268.45%
same,EC50,ΔF508-CFTR [2]; [6],141 nM
same,EC50,CFTR ΔF508; [8],43 nM
"CC(C)N1CCN(C2CCN(c3cc(C(=O)NS(=O)(=O)N(C)C)nc4c3c(C3CCC3)nn4-c3ccc(F)cc3)CC2)CC1 [Compound 382, 3-cyclobutyl-N-(dimethylsulfamoyl)-1-(4-fluorophenyl)-4-{4-[4-(propan-2-yl)piperazin-1-yl]piperidin-1-yl}-1H-pyrazolo[3,4-b]pyridine-6-carboxamide]",% Activation,ΔF508-CFTR [1]; [3],500.01%
same,EC50,ΔF508-CFTR [1]; [4],158 nM
same,% Activation,ΔF508-CFTR [2]; [5],305.9%
same,EC50,ΔF508-CFTR [2]; [6],261 nM
same,EC50,"CFTR ΔF508; chronic TECC, Ieq = calculations based on the maximum current, read-out: EC50 (nM) (Ieq*)",205 nM
same,% Activity at 3 μM (AUC**),CFTR ΔF508; [7],347%
"COCC1CCN(c2cc(C(=O)NS(C)(=O)=O)nc3c2c(C2CCC2)nn3-c2ccnc(OC)c2)CC1 [Compound 385, 3-cyclobutyl-N-(methanesulfonyl)-4-[4-(methoxymethyl)piperidin-1-yl]-1-(2-methoxypyridin-4-yl)-1H-pyrazolo[3,4-b]pyridine-6-carboxamide]",% Activation,ΔF508-CFTR [1]; [3],393.53%
same,EC50,ΔF508-CFTR [1]; [4],64 nM
same,% Activation,ΔF508-CFTR [2]; [5],227.5%
same,EC50,ΔF508-CFTR [2]; [6],121 nM
same,EC50,CFTR ΔF508; [8],12.3 nM
"COCC1CCN(c2cc(C(=O)NS(=O)(=O)N3CCOCC3)nc3c2c(C2CCC2)nn3-c2ccccc2)CC1 [Compound 396, 3-cyclobutyl-4-[4-(methoxymethyl)piperidin-1-yl]-N-(morpholine-4-sulfonyl)-1-phenyl-1H-pyrazolo[3,4-b]pyridine-6-carboxamide]",% Activation,ΔF508-CFTR [1]; [3],385.8%
same,EC50,ΔF508-CFTR [1]; [4],55 nM
same,% Activation,ΔF508-CFTR [2]; [5],222.9%
same,EC50,ΔF508-CFTR [2]; [6],121 nM
same,% Activity at 3 μM (AUC**),CFTR ΔF508; [7],259.4666%
"COCC1CCN(c2cc(C(=O)NS(=O)(=O)N3CCC(N4CCOCC4)CC3)nc3c2c(C2CCC2)nn3-c2ccccc2)CC1 [Compound 397, 3-cyclobutyl-4-[4-(methoxymethyl)piperidin-1-yl]-N-[4-(morpholin-4-yl)piperidine-1-sulfonyl]-1-phenyl-1H-pyrazolo[3,4-b]pyridine-6-carboxamide]",% Activation,ΔF508-CFTR [1]; [3],381.8%
same,EC50,ΔF508-CFTR [1]; [4],49 nM
same,% Activation,ΔF508-CFTR [2]; [5],234.5%
same,EC50,ΔF508-CFTR [2]; [6],155 nM
same,% Activity at 3 μM (AUC**),CFTR ΔF508; [7],251.7766%

# Source: patent US10259810B2, “N-sulfonylated pyrazolo[3,4-b]pyridin-6-carboxamides and method of use” (AbbVie S.à.r.l., priority 2015, dated 2019)
